# From the supplement of paper PMC10307832
# Experiments:
# Experiment in all cases: relative viability (nuclei count vs DMSO), 5 days (fraction); higher = more cells survive
# XMD8-85 + Bortezomib = compound: CN1CCN(CC1)C2=CC(=C(C=C2)NC3=NC=C4C(=N3)N(C5=CC=CC=C5C(=O)N4C)C)OC [XMD8-85] + CC(C)C[C@H](NC(=O)[C@H](Cc1ccccc1)NC(=O)c1cnccn1)B(O)O [Bortezomib] (partner 0.002 µM)
# Procedure, shortened: (§1)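 Nuclei were stained with Hoechst during a one-step fixation (final 0.05% Triton X-100, 1% formaldehyde, 1 ug/ml Hoechst) carried out 5 days after dosing, then counted on 4× images. The cells, lung cancer lines in 1536-well plates, had been dosed by pin tool the day after seeding with one drug alone or a fixed anchor-drug dose plus five library-drug doses (not always all listed) in √10 steps. Relative viability is the nuclei count in treated wells divided by that in vehicle wells, and each value is the median of duplicate plates.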
# XMD8-85 + Decitabine = compound: CN1CCN(CC1)C2=CC(=C(C=C2)NC3=NC=C4C(=N3)N(C5=CC=CC=C5C(=O)N4C)C)OC [XMD8-85] + Nc1ncn([C@H]2C[C@H](O)[C@@H](CO)O2)c(=O)n1 [Decitabine] (partner 2 µM)
# Procedure, shortened: as §1
# 4EGI-1 + Luminespib = compound: O=C(O)C(Cc1ccccc1[N+](=O)[O-])=NNc1nc(-c2ccc(Cl)c(Cl)c2)cs1 (mixture of isomers) [4EGI-1] + CCNC(=O)c1noc(-c2cc(C(C)C)c(O)cc2O)c1-c1ccc(CN2CCOCC2)cc1 [Luminespib] (partner 0.01 µM)
# Procedure, shortened: as §1
# 4EGI-1 + Dasatinib = compound: O=C(O)C(Cc1ccccc1[N+](=O)[O-])=NNc1nc(-c2ccc(Cl)c(Cl)c2)cs1 (mixture of isomers) [4EGI-1] + Cc1nc(Nc2ncc(C(=O)Nc3c(C)cccc3Cl)s2)cc(N2CCN(CCO)CC2)n1 [Dasatinib] (partner 0.075 µM)
# Procedure, shortened: as §1
Cell Line,relative viability (XMD8-85 + Bortezomib; first compound 0.08 µM),relative viability (XMD8-85 + Bortezomib; first compound 0.253 µM),relative viability (XMD8-85 + Bortezomib; first compound 0.8 µM),relative viability (XMD8-85 + Bortezomib; first compound 2.53 µM),relative viability (XMD8-85 + Bortezomib; first compound 8 µM),relative viability (XMD8-85 + Decitabine; first compound 0.08 µM),relative viability (XMD8-85 + Decitabine; first compound 0.253 µM),relative viability (XMD8-85 + Decitabine; first compound 0.8 µM),relative viability (XMD8-85 + Decitabine; first compound 2.53 µM),relative viability (XMD8-85 + Decitabine; first compound 8 µM),relative viability (4EGI-1 + Luminespib; first compound 0.5 µM),relative viability (4EGI-1 + Luminespib; first compound 1.581 µM),relative viability (4EGI-1 + Luminespib; first compound 5 µM),relative viability (4EGI-1 + Luminespib; first compound 15.81 µM),relative viability (4EGI-1 + Luminespib; first compound 50 µM),relative viability (4EGI-1 + Dasatinib; first compound 0.5 µM),relative viability (4EGI-1 + Dasatinib; first compound 5 µM),relative viability (4EGI-1 + Dasatinib; first compound 15.81 µM),relative viability (4EGI-1 + Dasatinib; first compound 50 µM),relative viability (4EGI-1 + Dasatinib; first compound 1.581 µM)
HCC-15,0.948,1,1.14,1.15,0.926,0.537,0.642,0.782,0.749,0.517,0.25,0.437,0.268,0.157,0.152,0.642,0.612,0.511,0.308,–
NCI-H23,0.977,0.836,1.09,1.21,0.853,0.306,0.316,0.349,0.32,0.267,0.221,–,0.23,0.246,0.179,0.896,0.85,0.79,0.496,–
LC-2-ad,1.04,0.976,0.99,0.921,–,0.734,0.774,0.811,0.772,0.514,1.13,–,0.906,0.385,0.269,0.697,0.651,0.199,0.161,–
PC-14,0.794,0.964,0.821,0.935,0.596,0.275,0.276,0.223,0.162,0.133,0.466,–,0.195,0.155,0.155,0.342,0.297,0.0363,0.0488,–
NCI-H647,1.15,0.778,1.13,0.924,0.515,0.43,0.357,0.417,0.45,0.327,0.227,–,0.149,0.137,0.141,0.149,0.186,0.167,0.0838,–
201T,1.08,1.06,1.1,1.07,0.917,0.867,0.865,0.883,0.82,0.689,1.08,0.973,1.09,0.92,0.782,0.574,0.581,0.568,0.318,0.551
PC-3 [JPC-3],0.701,0.824,0.736,0.968,0.732,0.93,–,0.8,1.06,0.745,0.829,0.717,0.718,–,0.543,1.03,0.893,–,0.937,0.978
HCC-827,1.16,1.1,1.05,0.978,1.02,0.389,0.356,0.316,0.374,0.369,0.672,0.804,0.661,–,0.581,0.346,0.345,0.127,0.261,0.246
EPLC-272H,–,0.831,0.928,0.814,0.571,0.347,0.36,0.314,0.294,0.305,0.498,–,0.318,0.251,0.206,0.504,0.34,0.252,0.138,–
NCI-H2087,0.827,0.869,–,1.11,0.729,0.311,0.262,0.297,0.32,0.195,0.191,0.139,0.198,0.206,0.135,0.837,0.918,0.493,0.27,0.676
HARA,1.08,1.01,1.26,1.16,0.866,0.657,0.647,0.407,0.659,0.416,0.954,0.958,0.968,0.645,0.0683,0.273,0.283,0.206,0.218,0.319
UMC-11,0.538,0.577,0.903,0.852,0.373,0.568,0.618,0.594,0.545,0.544,1.07,1.21,0.999,0.99,0.598,0.502,0.406,0.415,0.208,0.462
BEN,0.795,0.808,0.839,0.549,0.416,0.761,0.671,0.757,0.66,0.483,0.371,0.332,0.318,0.331,0.152,0.328,0.329,0.282,0.233,0.302
EKVX,1.08,1.11,1.09,1.13,1,0.536,0.32,0.33,0.61,0.328,0.847,0.628,0.925,0.701,0.895,0.529,0.443,0.298,0.19,0.641
NCI-H1755,0.97,1.14,0.918,1.06,0.806,0.754,0.677,0.714,0.764,0.724,0.583,0.665,0.418,0.42,0.327,0.503,0.424,0.412,0.288,0.428
NCI-H2126,1.04,1.13,1.18,1.15,1.12,0.647,0.578,0.562,0.57,0.562,0.993,–,0.96,0.855,0.678,0.673,0.629,0.383,0.309,–
NCI-H1651,1.08,0.946,0.882,0.903,0.875,0.595,0.592,0.601,0.67,0.506,0.975,0.658,1.01,0.933,0.924,0.36,0.44,0.346,0.174,0.377
NCI-H460,0.924,0.999,1.2,0.956,0.75,0.442,0.506,0.503,0.566,0.396,0.038,–,0.0367,0.0323,0.0228,0.447,0.515,0.307,0.0847,–
NCI-H2347,1.2,1.09,0.824,0.921,0.407,0.599,0.619,0.583,–,0.531,0.499,–,0.438,0.426,0.411,0.339,0.318,0.305,0.336,–
EMC-BAC-2,1.06,1.05,1.1,1.16,0.965,0.873,0.961,–,1.05,0.887,1.25,1.01,1.16,1.15,1.06,0.369,0.361,0.362,0.296,0.298
NCI-H1437,0.497,0.443,0.438,0.541,0.378,0.641,0.534,0.596,–,0.501,1.19,1.05,1.15,0.862,0.457,0.427,0.421,0.232,0.103,0.409
NCI-H650,0.778,0.855,0.854,0.858,0.27,0.336,0.3,0.354,0.309,0.324,0.825,–,0.878,0.646,0.784,0.5,0.463,0.459,0.297,–
NCI-H2009,0.98,0.931,1.16,0.988,0.352,0.42,0.371,0.414,0.417,0.255,1.09,1.08,1.05,0.954,0.994,0.344,0.312,0.269,0.146,0.302
NCI-H1734,0.808,0.936,0.917,1.03,0.649,–,0.519,0.528,0.591,0.464,0.203,0.193,0.22,0.2,0.177,0.562,0.46,0.396,0.218,0.415
SK-LU-1,0.93,0.926,–,1.42,0.84,0.607,0.58,0.61,0.705,0.549,0.191,0.208,0.208,0.201,0.199,0.189,0.178,0.198,0.185,0.186
NCI-H1915,0.67,0.923,0.942,0.986,0.945,0.279,0.262,0.838,0.563,0.253,0.838,0.606,0.774,0.572,0.222,0.358,0.314,0.311,0.163,0.257
SW 1573,0.881,1.34,1.02,1.03,0.639,0.465,0.529,–,0.522,0.338,0.227,0.198,0.248,0.168,0.116,0.7,0.593,0.234,0.0967,0.254
NCI-H661,0.732,0.927,–,0.802,0.728,0.589,0.552,0.629,0.62,0.553,0.883,0.76,0.798,0.606,0.505,1.2,0.785,0.517,0.262,0.831
